According to PubChem BioAssay (NCI):
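Results reflect a 48-hour exposure of cells in 96-well plates to compound at five concentrations. TGI is the concentration that stops growth completely.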

Legend:
Test in all cases: NCI tumour cell line growth inhibition, 48 h
[1] = system: CAKI-1 renal
[2] = system: CCRF-CEM leukemia
[3] = system: DU-145 prostate
[4] = system: HCT-116 colon
[5] = system: HL-60(TB) leukemia
[6] = system: HOP-62 NSCLC
[7] = system: HOP-92 NSCLC
[8] = system: HT29 colon
[9] = system: IGROV1 ovarian
[10] = system: MALME-3M melanoma
[11] = system: MDA-MB-231 breast
[12] = system: RXF 393 renal
[13] = system: SF-268 CNS
[14] = system: SK-MEL-2 melanoma
[15] = system: SW-620 colon
[16] = system: SR leukemia

Row | Structure (SMILES) | TGI [1] | TGI [2] | TGI [3] | TGI [4] | TGI [5] | TGI [6] | TGI [7] | TGI [8] | TGI [9] | TGI [10] | TGI [11] | TGI [12] | TGI [13] | TGI [14] | TGI [15] | TGI [16]
1 | COc1ccc(C2=Nn3c(nnc(Cc4ccc(Cl)cc4)c3=O)SC2)cc1 | > 100 µM | > 100 µM | > 100 µM | > 100 µM | > 100 µM | > 100 µM | > 100 µM | > 100 µM | > 100 µM | > 100 µM | > 100 µM | > 100 µM | > 100 µM | > 100 µM | > 100 µM | –
2 | CCOP(=O)(O)C1C(CO)OC(n2ccc(=O)[nH]c2=O)C1O (stereo unspecified) | > 100 µM | > 100 µM | – | > 100 µM | > 100 µM | > 100 µM | > 100 µM | > 100 µM | > 100 µM | > 100 µM | > 100 µM | > 100 µM | > 100 µM | > 100 µM | > 100 µM | > 100 µM
3 | COc1cc(OC)cc(-c2nc3cc(F)ccc3s2)c1 | > 100 µM | > 100 µM | > 100 µM | 38.8 µM | – | – | – | > 100 µM | 43.6 µM | > 100 µM | 40.3 µM | 36.6 µM | 32 µM | 62.5 µM | > 100 µM | –
4 | C=C1CCC23CC(CC[C@@H]2[C@@]12C[C@@H](c1ccoc1)OC2=O)OC3=O (stereo partly specified) | > 100 µM | > 100 µM | – | > 100 µM | > 100 µM | > 100 µM | > 100 µM | > 100 µM | > 100 µM | > 100 µM | – | – | > 100 µM | > 100 µM | > 100 µM | –
5 | O=C1O/C(=C(/Cl)c2cccc3ccccc23)c2ccccc21 | > 100 µM | – | > 100 µM | > 100 µM | > 100 µM | > 100 µM | > 100 µM | > 100 µM | > 100 µM | > 100 µM | – | > 100 µM | > 100 µM | – | > 100 µM | > 100 µM
6 | O=c1[nH]nc(Cc2ccccc2)[nH]1 | > 100 µM | > 100 µM | > 100 µM | > 100 µM | > 100 µM | > 100 µM | > 100 µM | > 100 µM | > 100 µM | > 100 µM | – | > 100 µM | > 100 µM | > 100 µM | > 100 µM | > 100 µM
7 | O=C(O)Cc1cccc2c1OC(c1ccccc1)C(Cl)(C(=O)c1ccccc1)C2=O (stereo unspecified) | 31.6 µM | 18.2 µM | 65.3 µM | 29.4 µM | 28 µM | 43.6 µM | – | 30 µM | 28.9 µM | 34.9 µM | 58.8 µM | – | 76.1 µM | – | 21.2 µM | 60.6 µM
8 | COC(=O)C(COC(C)=O)NC(=O)/C=C/c1ccc(O)c(OC(C)=O)c1 (stereo unspecified) | > 100 µM | > 100 µM | > 100 µM | > 100 µM | – | > 100 µM | > 100 µM | > 100 µM | > 100 µM | > 100 µM | > 100 µM | – | > 100 µM | > 100 µM | > 100 µM | > 100 µM
9 | CC(=O)N[C@@H](Cc1ccc(O)cn1)C(=O)NCc1cccc(Cl)c1 | > 100 µM | > 100 µM | > 100 µM | > 100 µM | > 100 µM | > 100 µM | – | > 100 µM | > 100 µM | – | – | > 100 µM | > 100 µM | > 100 µM | > 100 µM | > 100 µM
10 | COc1cccc(N2C(=O)[C@H]3CC(C)c4c([nH]c5ccccc45)[C@H]3C2=O)c1 (stereo partly specified) | > 100 µM | > 100 µM | – | – | > 100 µM | 42.5 µM | 80.5 µM | > 100 µM | > 100 µM | > 100 µM | – | 38.8 µM | > 100 µM | > 100 µM | – | –
11 | CSC1=N/C(=C\c2ccccc2)C(=O)N1CN1CCCCC1 | – | > 100 µM | > 100 µM | > 100 µM | – | > 100 µM | > 100 µM | 90.7 µM | > 100 µM | > 100 µM | > 100 µM | – | > 100 µM | > 100 µM | > 100 µM | > 100 µM
12 | CCOP(=O)(CN1CCNCCNCC1)OCC | > 100 µM | > 100 µM | > 100 µM | > 100 µM | > 100 µM | > 100 µM | > 100 µM | > 100 µM | > 100 µM | – | > 100 µM | – | – | > 100 µM | > 100 µM | > 100 µM
13 | Cc1ccc(S(=O)(=O)OC(c2ccc(Cl)cc2Cl)C2OC(=O)c3ccccc32)cc1 (stereo unspecified) | – | > 100 µM | – | > 100 µM | 86.1 µM | > 100 µM | – | > 100 µM | > 100 µM | > 100 µM | – | > 100 µM | > 100 µM | > 100 µM | > 100 µM | > 100 µM
14 | COc1cccc(/C=C2\C(=O)N(C(=O)c3ccc(NC(C)=O)cc3)N=C2C)c1 | > 100 µM | > 100 µM | – | > 100 µM | – | > 100 µM | – | > 100 µM | – | > 100 µM | – | – | > 100 µM | > 100 µM | > 100 µM | –
15 | Cc1nn(C(=O)Cc2ccccc2)c2c1C(c1ccc(N(C)C)cc1)SC(N)=N2 (stereo unspecified) | > 100 µM | > 100 µM | > 100 µM | > 100 µM | > 100 µM | > 100 µM | – | > 100 µM | > 100 µM | > 100 µM | > 100 µM | – | > 100 µM | – | > 100 µM | > 100 µM
16 | CCOC(=O)C(Cc1cn(S(=O)(=O)c2ccccc2)c2ccccc12)(NC(C)=O)C(=O)OCC | > 100 µM | 72 µM | – | 95.8 µM | 41.5 µM | > 100 µM | 67.1 µM | > 100 µM | > 100 µM | > 100 µM | – | – | > 100 µM | 80.3 µM | > 100 µM | 69.8 µM
